Experimental data: paper PMC8635440 (Science Advances, 2021)
Positions of bridges follow the written chain, without caps; N, C: chain ends. Non-standard residues stand in square brackets, D forms with d. Residues, ends and D or L forms follow the SMILES beside them.

Tests used:
[1] = target: human retromer complex (Vps35-[change]-Vps29) (human) (UniProt Q96QK1); experiment: ITC
Vps29 = Vps29 (Homo sapiens, UniProt Q9UBQ0); experiment: Differential scanning fluorimetry of Vps29; format: binding; conditions: DSF, 20-fold molar excess
SNX27PDZ into Retromer = SNX27PDZ into Retromer (Homo sapiens, UniProt O75436+Q96QK1+Q9UBQ0); experiment: ITC of SNX27PDZ into retromer in presence of cyclic peptide; format: binding, mouse SNX27; conditions: 1.3 mM SNX27PDZ into 30 μM retromer + 150 μM peptide; native (DMSO) 13.0 ± 0.5
[2] = target: GST-TBC1D5TBC binding to retromer (Homo sapiens, UniProt O75436+Q96QK1+Q9UBQ0); experiment: GST pull-down assay; conditions: GST pulldown, purified proteins
TBC1D5TBC into Retromer = TBC1D5TBC into Retromer (Homo sapiens, UniProt O75436+Q96QK1+Q9UBQ0); experiment: ITC of TBC1D5TBC into retromer in presence of cyclic peptide; format: binding; conditions: native 370 nM
[3] = system: TBC1D5 localization in HeLa cells; experiment: TBC1D5 endosomal localization after SLO delivery of peptide; format: cell-based, human; conditions: 2 hours recovery, colocalization with SNX1
Solubility observations = format: physicochemical; conditions: ITC buffer
retromer holo-complex = retromer holo-complex (Homo sapiens, UniProt O75436+Q96QK1+Q9UBQ0); experiment: Differential scanning fluorimetry of retromer; format: binding; conditions: DSF
[4] = target: retromer and its ligands in HeLa cell lysates (Homo sapiens, UniProt O75436+Q96QK1+Q9UBQ0); experiment: Biotinylated cyclic peptide pull-down from HeLa cell lysates; format: binding; conditions: streptavidin agarose, Western blotting
[5] = target: Vps26A9-298_Vps351-390 (Δ C-term. tail complex) (Homo sapiens, UniProt O75436+Q96QK1); experiment: ITC binding to Vps26A ΔC-term. tail subcomplex; conditions: 25°C, Vps26A C-terminal tail removed
[6] = target: Rab7a with TBC1D5TBC and retromer (Homo sapiens, UniProt O75436+Q96QK1+Q9UBQ0); experiment: GTPase activity assay; format: biochemical; conditions: 10 μM Rab7a, 3 μM TBC1D5TBC, 6 μM retromer, 60 μM peptide
Vps26A = Vps26A (Homo sapiens, UniProt O75436); experiment: Differential scanning fluorimetry of Vps26A; format: binding; conditions: DSF, control experiment
[7] = target: Vps26A-Vps35_1–390 subcomplex (Homo sapiens, UniProt O75436+Q96QK1); experiment: Differential scanning fluorimetry of Vps26A-Vps35 1-390; format: binding; conditions: DSF
zfRetromer = zfRetromer (Danio rerio, UniProt A4QP42+Q6TNP8); experiment: ITC binding to zebrafish retromer
[8] = target: retromer binding to SNX3–CI-MPR cargo-PtdIns3P liposomes (Homo sapiens, UniProt O75436+Q96QK1+Q9UBQ0); experiment: Liposome binding assay; conditions: Folch I liposomes, 7 μM retromer-SNX3
Vps26BΔC-Vps35_1–390 = Vps26BΔC-Vps35_1–390 (UniProt Q8C0E2+Q96QK1); experiment: ITC binding to Vps26B ΔC-term. tail subcomplex; design: species or system mouse Vps26B, human Vps35
ctRetromer = target: T1, ctRetromer (Thermochaetoides thermophila, UniProt G0S0E6+G0S709); experiment: ITC binding to C. thermophilum retromer; design: species or system Chaetomium thermophilum; conditions: 25°C
T1 sequence (G0S709 1-869): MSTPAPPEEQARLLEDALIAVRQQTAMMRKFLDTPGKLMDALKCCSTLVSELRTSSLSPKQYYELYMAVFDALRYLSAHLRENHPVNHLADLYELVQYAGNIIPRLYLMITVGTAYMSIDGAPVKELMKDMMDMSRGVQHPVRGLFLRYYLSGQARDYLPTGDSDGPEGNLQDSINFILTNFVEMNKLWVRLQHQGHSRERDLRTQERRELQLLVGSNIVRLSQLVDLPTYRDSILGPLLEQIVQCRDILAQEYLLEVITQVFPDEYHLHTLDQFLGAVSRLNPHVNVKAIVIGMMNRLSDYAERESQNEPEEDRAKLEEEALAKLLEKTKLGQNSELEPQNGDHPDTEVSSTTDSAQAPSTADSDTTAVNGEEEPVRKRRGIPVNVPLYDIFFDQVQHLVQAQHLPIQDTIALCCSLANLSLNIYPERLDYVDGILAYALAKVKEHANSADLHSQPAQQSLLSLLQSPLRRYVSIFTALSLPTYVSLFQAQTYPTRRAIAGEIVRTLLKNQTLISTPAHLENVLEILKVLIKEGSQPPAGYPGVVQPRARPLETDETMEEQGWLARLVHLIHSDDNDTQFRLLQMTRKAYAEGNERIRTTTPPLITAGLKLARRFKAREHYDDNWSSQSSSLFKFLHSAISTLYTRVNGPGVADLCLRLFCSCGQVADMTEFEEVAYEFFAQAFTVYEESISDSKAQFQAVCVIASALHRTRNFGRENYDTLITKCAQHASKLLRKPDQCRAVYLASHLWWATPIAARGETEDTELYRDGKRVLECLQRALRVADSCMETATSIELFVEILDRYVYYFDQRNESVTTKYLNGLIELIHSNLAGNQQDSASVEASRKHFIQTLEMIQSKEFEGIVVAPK
T1 sequence (G0S0E6 1-316): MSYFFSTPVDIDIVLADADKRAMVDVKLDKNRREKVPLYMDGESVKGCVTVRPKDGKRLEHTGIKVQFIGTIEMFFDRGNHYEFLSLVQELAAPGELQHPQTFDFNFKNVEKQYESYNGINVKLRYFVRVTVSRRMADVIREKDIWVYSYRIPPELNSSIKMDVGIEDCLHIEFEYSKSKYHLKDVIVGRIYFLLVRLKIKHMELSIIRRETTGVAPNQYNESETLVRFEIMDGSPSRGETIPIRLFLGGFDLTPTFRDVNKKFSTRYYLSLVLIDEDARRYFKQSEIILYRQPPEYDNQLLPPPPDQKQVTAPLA

TBC domain of human TBC1D5 (from UniProt Q92609 1-795) (domain or fragment)
Kd [1]: 370 nM

CC[C@H](C)[C@@H]1NC(=O)[C@H](CCCNC(=N)N)NC(=O)[C@@H]2CCCN2C(=O)[C@H](Cc2ccccc2)NC(=O)[C@H]([C@@H](C)O)NC(=O)CNC(=O)[C@H](CC(C)C)NC(=O)[C@@H]2CCCN2C(=O)[C@H]([C@@H](C)O)NC(=O)[C@H](Cc2c[nH]c3ccccc23)NC(=O)[C@H](Cc2ccc(O)cc2)NC(=O)[C@H]([C@@H](C)CC)NC(=O)[C@H]([C@@H](C)O)NC(=O)[C@H]([C@@H](C)O)NC(=O)[C@@H](Cc2ccc(O)cc2)NC(=O)CSC[C@@H](C(N)=O)NC(=O)[C@H](CCCNC(=N)N)NC1=O [RT-D2] ({CH2CO}-[dY]TTIYWTPLGTFPRIRC-NH2; thioether N-17)
effect on melting temperature (Tm) of Vps29 (Vps29): increased

CC(C)C[C@@H]1NC(=O)CNC(=O)[C@H](CC(C)C)NC(=O)[C@@H]2CCCN2C(=O)[C@H](CC(=O)O)NC(=O)[C@H](Cc2ccc(O)cc2)NC(=O)CNC(=O)[C@@H](Cc2ccc(O)cc2)NC(=O)CSC[C@@H](C(N)=O)NC(=O)[C@H](C)NC(=O)[C@H](Cc2ccccc2)NC(=O)[C@H](Cc2ccc(O)cc2)NC(=O)[C@H](CCCCN)NC1=O [RT-D3] ({CH2CO}-[dY]GYDPLGLKYFAC-NH2; thioether N-13)
Kd (SNX27PDZ into Retromer): no impact
effect on GST-TBC1D5TBC interaction with retromer [2]: inhibited
effect on melting temperature (Tm) of Vps29 (Vps29): increased
Kd (TBC1D5TBC into Retromer): undetectable
effect on TBC1D5 localization to endosomal structures [3]: significant dispersal

CC[C@H](C)[C@@H]1NC(=O)[C@H]([C@@H](C)CC)NC(=O)[C@@H](Cc2ccc(O)cc2)NC(=O)CSC[C@@H](C(N)=O)NC(=O)[C@H](CCCNC(=N)N)NC(=O)[C@H](CCCCN)NC(=O)[C@H](CC(C)C)NC(=O)[C@H](CO)NC(=O)[C@H](CO)NC(=O)[C@H](CC(C)C)NC(=O)[C@H](Cc2ccccc2)NC(=O)[C@H](C(C)C)NC(=O)CNC(=O)[C@H](CC(C)C)NC(=O)[C@@H]2CCCN2C(=O)[C@H]([C@@H](C)O)NC(=O)[C@H](CC(=O)O)NC1=O [RT-D1] ({CH2CO}-[dY]IIDTPLGVFLSSLKRC-NH2; thioether N-17)
effect on melting temperature (Tm) of Vps29 (Vps29): increased

CC[C@H](C)[C@@H]1NC(=O)[C@H]([C@@H](C)O)NC(=O)[C@@H]2CCCN2C(=O)[C@H](CC(C)C)NC(=O)[C@H](Cc2ccc(O)cc2)NC(=O)CSC[C@@H](C(N)=O)NC(=O)[C@H](CC(C)C)NC(=O)[C@@H]2CCCN2C(=O)[C@H](Cc2c[nH]cn2)NC(=O)[C@H](Cc2c[nH]c3ccccc23)NC(=O)[C@H](CC(C)C)NC(=O)[C@H](Cc2c[nH]cn2)NC(=O)CNC(=O)[C@H](C(C)C)NC(=O)CNC(=O)[C@H]([C@@H](C)O)NC1=O [RT-L2] ({CH2CO}-YLPTITGVGHLWHPLC-NH2; thioether N-16)
effect on melting temperature (Tm) of Vps29 (Vps29): increased

CC(C)C[C@@H]1NC(=O)[C@@H]2CCCN2C(=O)[C@H](CC(=O)O)NC(=O)[C@H](Cc2c[nH]c3ccccc23)NC(=O)CNC(=O)[C@@H](Cc2ccc(O)cc2)NC(=O)CSC[C@@H](C(N)=O)NC(=O)[C@H](C(C)C)NC(=O)[C@H](Cc2ccccc2)NC(=O)[C@H](Cc2ccc(O)cc2)NC(=O)[C@H](CC(N)=O)NC(=O)[C@H](C(C)C)NC(=O)[C@H](Cc2ccc(O)cc2)NC1=O [RT-D4] ({CH2CO}-[dY]GWDPLYVNYFVC-NH2; thioether N-13)
solubility for ITC experiments (Solubility observations): not sufficiently soluble for ITC experiments

CC[C@H](C)[C@@H]1NC(=O)[C@H](Cc2ccc(O)cc2)NC(=O)CSC[C@@H](C(N)=O)NC(=O)CNC(=O)[C@H](Cc2c[nH]cn2)NC(=O)[C@H](CCCNC(=N)N)NC(=O)[C@H](CC(N)=O)NC(=O)[C@@H]2CCCN2C(=O)[C@H](Cc2ccccc2)NC(=O)[C@H]([C@@H](C)O)NC(=O)CNC(=O)[C@H](CC(C)C)NC(=O)[C@@H]2CCCN2C(=O)[C@H]([C@@H](C)O)NC(=O)[C@H](CCCCN)NC1=O [RT-L1] ({CH2CO}-YIKTPLGTFPNRHGC-NH2; thioether N-15)
effect on melting temperature (Tm) of Vps29 (Vps29): increased

CC(C)C[C@@H]1NC(=O)[C@H](Cc2ccc(O)cc2)NC(=O)CSC[C@@H](C(N)=O)NC(=O)[C@H](CC(N)=O)NC(=O)[C@H](C(C)C)NC(=O)[C@H](Cc2ccc(O)cc2)NC(=O)[C@H](Cc2ccccc2)NC(=O)[C@H](CC(C)C)NC(=O)[C@H](CCCNC(=N)N)NC(=O)[C@H](C(C)C)NC(=O)[C@H](Cc2ccc(O)cc2)NC(=O)[C@H](CC(C)C)NC(=O)[C@@H]2CCCN2C(=O)[C@H](CC(=O)O)NC(=O)[C@H](Cc2ccccc2)NC(=O)[C@H](CCC(=O)O)NC1=O [RT-L3] ({CH2CO}-YLEFDPLYVRLFYVNC-NH2; thioether N-16)
solubility for ITC experiments (Solubility observations): not sufficiently soluble for ITC experiments

N=C(N)SCc1ccc(CSC(=N)N)s1 [R55]
impact on thermal stability (Tm) of retromer (retromer holo-complex; 3 µM Retromer, 60 μM compound or 30-fold molar excess of peptide): unable to detect significant improvement
impact on Retromer stability (retromer holo-complex; 1 mM (>300-fold molar excess)): little impact

CC[C@H](C)[C@@H]1NC(=O)[C@H](Cc2c[nH]c3ccccc23)NC(=O)[C@H](Cc2ccc(O)cc2)NC(=O)CSC[C@@H](C(N)=O)NC(=O)[C@H]([C@@H](C)O)NC(=O)[C@H](CO)NC(=O)[C@H](C(C)C)NC(=O)[C@H](Cc2ccc(O)cc2)NC(=O)[C@H](CCCNC(=N)N)NC(=O)[C@H](Cc2ccc(O)cc2)NC(=O)[C@H]([C@@H](C)O)NC(=O)[C@H]([C@@H](C)O)NC(=O)[C@H](Cc2c[nH]c3ccccc23)NC(=O)[C@H](CO)NC(=O)[C@H](CC(N)=O)NC(=O)[C@H](CO)NC1=O [RT-L4] ({CH2CO}-YWISNSWTTYRYVSTC-NH2; thioether N-16)
retromer ligands recovered with peptide-bound retromer [4]: able to interact with TBC1D5, VARP, Fam21, SNX27, and the SNX3–DMT1-II complex
Kd [5]: ~40 nM
GAP-stimulated GTP hydrolysis of Rab7a [6]: slight improvement
effect on thermal stability of Vps26A alone (Vps26A): did not affect
increase in Tm for the Vps26A-Vps35_1–390 subcomplex [7]: 8 °C
Kd (zfRetromer): 88 nM
effect on melting temperature (Tm) of Vps29 (Vps29): did not affect
retromer binding to SNX3–CI-MPR cargo-PtdIns3P liposomes [8]: subtle reduction
effect on TBC1D5 localization to endosomal structures [3]: no discernible effect
Kd (Vps26BΔC-Vps35_1–390): ~40 nM
Kd (ctRetromer): 5000 nM
